Test results as given in US10160762B2, “6-alkyl dihydropyrazolopyrimidinone compounds as PDE2 inhibitors” (Merck Sharp & Dohme Corp., priority 2015, dated 2018).

Molecular target: T1, human PDE2A1 (Homo sapiens, UniProt O00408)
T1 construct: GST; purchased BPS Bioscience (San Diego, Calif.) 60020; host or cells: insect cells
Assay: IMAP FP PDE assay, human PDE2A1
Format: biochemical
Conditions: Lab B; read-out: Human PDE2 Ki (nM) Lab B
In short: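 FP (IMAP) read after 60 min room-temperature reaction of insect-cell GST-human PDE2A1 with 50 nM FAM-cAMP plus 1000 nM cGMP (pH 7.2 Tris, Mg2+, DTT). Compounds titrated 3-fold over ten points. Apparent Ki derived assuming KM of 10,000 nM; enzyme at 20% substrate turnover.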

T1 sequence (O00408 1-920 isoform O00408-2): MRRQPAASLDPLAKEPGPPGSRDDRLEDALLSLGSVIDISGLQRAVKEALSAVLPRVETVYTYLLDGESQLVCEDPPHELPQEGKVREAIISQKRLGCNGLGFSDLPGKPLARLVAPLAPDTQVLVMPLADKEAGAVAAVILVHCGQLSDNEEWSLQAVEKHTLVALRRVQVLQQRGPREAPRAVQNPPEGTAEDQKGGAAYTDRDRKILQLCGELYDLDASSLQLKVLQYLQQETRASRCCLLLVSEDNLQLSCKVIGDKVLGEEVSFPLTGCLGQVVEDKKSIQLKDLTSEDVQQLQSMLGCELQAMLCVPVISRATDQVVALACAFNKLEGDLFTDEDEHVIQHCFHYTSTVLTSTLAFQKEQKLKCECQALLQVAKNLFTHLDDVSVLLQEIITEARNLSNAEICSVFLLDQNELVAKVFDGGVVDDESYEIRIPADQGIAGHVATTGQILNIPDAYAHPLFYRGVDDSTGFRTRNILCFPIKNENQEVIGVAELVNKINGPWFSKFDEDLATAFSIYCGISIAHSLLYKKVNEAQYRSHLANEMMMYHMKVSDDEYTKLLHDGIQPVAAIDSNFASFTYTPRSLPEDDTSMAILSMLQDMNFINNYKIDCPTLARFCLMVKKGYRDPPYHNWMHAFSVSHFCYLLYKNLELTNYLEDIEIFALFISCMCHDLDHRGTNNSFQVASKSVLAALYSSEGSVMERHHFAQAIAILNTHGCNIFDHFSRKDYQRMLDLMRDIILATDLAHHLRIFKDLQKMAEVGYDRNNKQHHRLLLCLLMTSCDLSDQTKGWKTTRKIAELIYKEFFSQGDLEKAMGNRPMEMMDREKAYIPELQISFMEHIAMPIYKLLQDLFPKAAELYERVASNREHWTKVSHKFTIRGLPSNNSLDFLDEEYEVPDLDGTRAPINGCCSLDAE

Ki [nM] | Structure (SMILES)
0.32 | Cc1nc2c(c(CF)nn2C(c2ccc(C(F)(F)F)c(F)c2)C2CC2)c(=O)[nH]1 (single isomer, unassigned) [Example 226, (R)- or (S)-1-(Cyclopropyl(3-fluoro-4-(trifluoromethyl)phenyl)methyl)-3-(fluoromethyl)-6-methyl-1,5-dihydro-4H-pyrazolo[3,4-d]pyrimidin-4-one]
1.9 | Cc1nc2c(c(CCO)nn2C(C)c2ccc(C(F)(F)F)cc2)c(=O)[nH]1 (single isomer, unassigned) [Example 250]
39 | CC(C)c1nc2c(c(CO)nn2C(C)c2ccc(C(F)(F)F)cc2)c(=O)[nH]1 (racemic) [Example 296, 3-(Hydroxymethyl)-6-(1-methylethyl)-1-{1-[4-(trifluoromethyl)phenyl]ethyl}-1,5-dihydro-4H-pyrazolo[3,4-d]pyrimidin-4-one]
111 | Cc1nc2c(c(CC(F)F)nn2C(C)c2ccc(C(F)(F)F)cc2)c(=O)[nH]1 (single isomer, unassigned) [Example 285]
1.6 | Cc1nc2c(c(C(F)(F)CO)nn2C(C)c2ccc(C(F)(F)F)cc2)c(=O)[nH]1 (single isomer, unassigned) [Example 255]
2 | Cc1nc2c(c(CC(F)F)nn2C(C)c2ccc(C(F)(F)F)cc2)c(=O)[nH]1 (single isomer, unassigned) [Example 286]
11 | Cc1nc2c(c(CF)nn2C(c2ccc(C(F)(F)F)cc2)C(C)(C)C)c(=O)[nH]1 (single isomer, unassigned) [Example 234, (S)- or (R)-1-(2,2-Dimethyl-1-(4-(trifluoromethyl)phenyl)propyl)-3-(fluoromethyl)-6-methyl-1H-pyrazolo[3,4-d]pyrimidin-4(5H)-one]

The remaining lines, values behind:

Structure (SMILES) | Ki [nM]
Cc1nc2c(c(CO)nn2C(c2ccc(OC(F)(F)F)cc2)C(C)C)c(=O)[nH]1 (single isomer, unassigned) [Example 85, (S)- or (R)-3-(Hydroxymethyl)-6-methyl-1-(2-methyl-1-(4-(trifluoromethoxy)phenyl)propyl)-1H-pyrazolo[3,4-d]pyrimidin-4(5H)-one] | 0.89
Cc1nc2c(c(CO)nn2C(c2ccc(OC(F)(F)F)cc2)C(C)C)c(=O)[nH]1 (single isomer, unassigned) [Example 84, (R)- or (S)-3-(Hydroxymethyl)-6-methyl-1-(2-methyl-1-(4-(trifluoromethoxy)phenyl)propyl)-1H-pyrazolo[3,4-d]pyrimidin-4(5H)-one] | 11
Cc1nc2c(c(CO)nn2C(C)c2ccc(C(F)(F)F)cc2Cl)c(=O)[nH]1 (single isomer, unassigned) [Example 19, (S)- or (R)-1-(1-(2-Chloro-4-(trifluoromethyl)phenyl)ethyl)-3-(hydroxymethyl)-6-methyl-1H-pyrazolo[3,4-d]pyrimidin-4(5H)-one] | 1.8
Cc1nc2c(c(CO)nn2C(c2ccc(C(C)(C)C)cc2)C2CC2)c(=O)[nH]1 (single isomer, unassigned) [Example 89, (S)- or (R)-1-((4-tert-Butylphenyl)(cyclopropyl)methyl)-3-(hydroxymethyl)-6-methyl-1H-pyrazolo[3,4-d]pyrimidin-4(5H)-one] | 0.33
Cc1nc2c(c(CC(F)(F)F)nn2C(c2ccc(C(F)(F)F)cc2)C2(C)CC2)c(=O)[nH]1 (single isomer, unassigned) [Example 59, (S)- or (R)-6-Methyl-1-((1-methylcyclopropyl)(4-(trifluoromethyl)phenyl)methyl)-3-(2,2,2-trifluoroethyl)-1H-pyrazolo[3,4-d]pyrimidin-4(5H)-one] | 23
Cc1nc2c(c(CO)nn2C(c2ccc(C(F)(F)F)cc2)C2(C)CC2)c(=O)[nH]1 (single isomer, unassigned) [Example 24, (R)- or (S)-3-(Hydroxymethyl)-6-methyl-1-((1-methylcyclopropyl)(4-(trifluoromethyl)phenyl)methyl)-1H-pyrazolo[3,4-d]pyrimidin-4(5H)-one] | 1.9
Cc1nc2c(c(CO)nn2C(c2ccc(OC(F)(F)F)c(F)c2)C2CC2)c(=O)[nH]1 (single isomer, unassigned) [Example 92, (R)- or (S)-1-(Cyclopropyl(3-fluoro-4-(trifluoromethoxy)phenyl)methyl)-3-(hydroxymethyl)-6-methyl-1H-pyrazolo[3,4-d]pyrimidin-4(5H)-one] | 8.3
